Assay results taken from patent US20230085307A1, “PYRIDAZINONE COMPOUND AND HERBICIDE” (NISSAN CHEMICAL CORPORATION, priority 2019, published 2023).

Tests used:
[1] = tested on: velvetleaf; assay: Test Example 4: herbicidal effect by soil treatment (Table 19, symbol M); type: in vivo, velvetleaf (Abutilon theophrasti); conditions: amount of applied herbicide 320 g/ha
Summary of the method: (§1)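 Pre-emergence style soil spray: seeds under ~1.5 cm sterilized diluvial soil received a uniform coat of emulsion diluted to the predetermined herbicide amount. Greenhouse 25–30° C; readout at week three on previously defined criteria.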

[2] = tested on: barnyard grass; assay: Test Example 3: herbicidal effect by foliage application, Wagner pot (Table 18, symbol H); type: in vivo, barnyard grass (Echinochloa crus-galli); conditions: 320 g/ha
Summary of the method: (§2)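 Plants were sown in alluvial soil held under 0.1–0.5 cm standing water and grown 14 days in a greenhouse at 25–30 °C. An emulsifiable formulation, water-diluted to the set dose, was then sprayed onto the foliage, and effects were scored three weeks later using previously defined criteria.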

[3] = tested on: barnyard grass; assay: Test Example 5: herbicidal effect by foliage application, plastic box (Table 20, symbol H); type: in vivo, barnyard grass (Echinochloa crus-galli); conditions: foliage application, 320 g/ha, three weeks after application
Summary of the method: (§3)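 Plants were sown into sterilized diluvial soil under about 1.5 cm cover and kept in a greenhouse at 25° C. to 30° C. Fourteen days on, foliage received an even spray of the diluted emulsion. Herbicidal or crop effect was judged three weeks afterwards.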

[4] = tested on: false cleavers; assay: Test Example 4: herbicidal effect by soil treatment (Table 19, symbol Q); type: in vivo, false cleavers (Galium spurium); conditions: amount of applied herbicide 320 g/ha
Summary of the method: as §1

[5] = tested on: Chinese sprangletop; assay: Test Example 3: herbicidal effect by foliage application, Wagner pot (Table 18, symbol D); type: in vivo, chinese sprangletop (Leptochloa chinensis); conditions: 320 g/ha
Summary of the method: as §2

[6] = tested on: wild oat; assay: Test Example 5: herbicidal effect by foliage application, plastic box (Table 20, symbol I); type: in vivo, wild oat (Avena fatua); conditions: foliage application, 320 g/ha, three weeks after application
Summary of the method: as §3

[7] = tested on: wild oat; assay: Test Example 4: herbicidal effect by soil treatment (Table 19, symbol I); type: in vivo, wild oat (Avena fatua); conditions: amount of applied herbicide 320 g/ha
Summary of the method: as §1

[8] = tested on: rice flat sedge; assay: Test Example 3: herbicidal effect by foliage application, Wagner pot (Table 18, symbol E); type: in vivo, rice flat sedge (Cyperus iria); conditions: 320 g/ha
Summary of the method: as §2

[9] = tested on: southern crabgrass; assay: Test Example 5: herbicidal effect by foliage application, plastic box (Table 20, symbol F); type: in vivo, southern crabgrass (Digitaria ciliaris); conditions: foliage application, 320 g/ha, three weeks after application
Summary of the method: as §3

[10] = tested on: redroot pigweed; assay: Test Example 5: herbicidal effect by foliage application, plastic box (Table 20, symbol N); type: in vivo, redroot pigweed (Amaranthus retroflexus); conditions: foliage application, 320 g/ha, three weeks after application
Summary of the method: as §3

[11] = tested on: windgrass; assay: Test Example 5: herbicidal effect by foliage application, plastic box (Table 20, symbol L); type: in vivo, windgrass (Apera spica-venti); conditions: foliage application, 320 g/ha, three weeks after application
Summary of the method: as §3

[12] = tested on: green foxtail; assay: Test Example 5: herbicidal effect by foliage application, plastic box (Table 20, symbol G); type: in vivo, green foxtail (Setaria viridis); conditions: foliage application, 320 g/ha, three weeks after application
Summary of the method: as §3

[13] = tested on: persian speedwell; assay: Test Example 4: herbicidal effect by soil treatment (Table 19, symbol R); type: in vivo, Persian speedwell (Veronica persica); conditions: amount of applied herbicide 320 g/ha
Summary of the method: as §1

[14] = tested on: chickweed; assay: Test Example 5: herbicidal effect by foliage application, plastic box (Table 20, symbol P); type: in vivo, common chickweed (Stellaria media); conditions: foliage application, 320 g/ha, three weeks after application
Summary of the method: as §3

[15] = tested on: green foxtail; assay: Test Example 4: herbicidal effect by soil treatment (Table 19, symbol G); type: in vivo, green foxtail (Setaria viridis); conditions: amount of applied herbicide 320 g/ha
Summary of the method: as §1

[16] = tested on: redroot pigweed; assay: Test Example 4: herbicidal effect by soil treatment (Table 19, symbol N); type: in vivo, redroot pigweed (Amaranthus retroflexus); conditions: amount of applied herbicide 320 g/ha
Summary of the method: as §1

[17] = tested on: windgrass; assay: Test Example 4: herbicidal effect by soil treatment (Table 19, symbol L); type: in vivo, windgrass (Apera spica-venti); conditions: amount of applied herbicide 320 g/ha
Summary of the method: as §1

[18] = tested on: blackgrass; assay: Test Example 5: herbicidal effect by foliage application, plastic box (Table 20, symbol J); type: in vivo, blackgrass (Alopecurus myosuroides); conditions: foliage application, 320 g/ha, three weeks after application
Summary of the method: as §3

[19] = tested on: Italian ryegrass; assay: Test Example 4: herbicidal effect by soil treatment (Table 19, symbol K); type: in vivo, Italian ryegrass (Lolium multiflorum); conditions: amount of applied herbicide 320 g/ha
Summary of the method: as §1

[20] = tested on: lambsquarters; assay: Test Example 5: herbicidal effect by foliage application, plastic box (Table 20, symbol O); type: in vivo, lambsquarters (Chenopodium album); conditions: foliage application, 320 g/ha, three weeks after application
Summary of the method: as §3

[21] = tested on: barnyard grass; assay: Test Example 4: herbicidal effect by soil treatment (Table 19, symbol H); type: in vivo, barnyard grass (Echinochloa crus-galli); conditions: amount of applied herbicide 320 g/ha
Summary of the method: as §1

[22] = tested on: southern crabgrass; assay: Test Example 4: herbicidal effect by soil treatment (Table 19, symbol F); type: in vivo, southern crabgrass (Digitaria ciliaris); conditions: amount of applied herbicide 320 g/ha
Summary of the method: as §1

[23] = tested on: chickweed; assay: Test Example 4: herbicidal effect by soil treatment (Table 19, symbol P); type: in vivo, common chickweed (Stellaria media); conditions: amount of applied herbicide 320 g/ha
Summary of the method: as §1

[24] = tested on: Italian ryegrass; assay: Test Example 5: herbicidal effect by foliage application, plastic box (Table 20, symbol K); type: in vivo, Italian ryegrass (Lolium multiflorum); conditions: foliage application, 320 g/ha, three weeks after application
Summary of the method: as §3

[25] = tested on: lambsquarters; assay: Test Example 4: herbicidal effect by soil treatment (Table 19, symbol O); type: in vivo, lambsquarters (Chenopodium album); conditions: amount of applied herbicide 320 g/ha
Summary of the method: as §1

[26] = tested on: persian speedwell; assay: Test Example 5: herbicidal effect by foliage application, plastic box (Table 20, symbol R); type: in vivo, Persian speedwell (Veronica persica); conditions: foliage application, 320 g/ha, three weeks after application
Summary of the method: as §3

[27] = tested on: velvetleaf; assay: Test Example 5: herbicidal effect by foliage application, plastic box (Table 20, symbol M); type: in vivo, velvetleaf (Abutilon theophrasti); conditions: foliage application, 320 g/ha, three weeks after application
Summary of the method: as §3

[28] = tested on: false cleavers; assay: Test Example 5: herbicidal effect by foliage application, plastic box (Table 20, symbol Q); type: in vivo, false cleavers (Galium spurium); conditions: foliage application, 320 g/ha, three weeks after application
Summary of the method: as §3

[29] = tested on: blackgrass; assay: Test Example 4: herbicidal effect by soil treatment (Table 19, symbol J); type: in vivo, blackgrass (Alopecurus myosuroides); conditions: amount of applied herbicide 320 g/ha
Summary of the method: as §1

COc1ccc2c(-c3c(O)c(C)nn(C)c3=O)c(-c3ccccc3)sc2c1 [3-061]
M: velvetleaf, herbicidal effect grade [1]: 0 (Herbicidal rate of 5% or less (almost no effect)) | herbicidal effect on barnyard grass (H) [2]: 2 (Herbicidal rate of 20% or more and less than 40%) | H: barnyard grass, herbicidal effect grade [3]: 0 (Herbicidal rate of 5% or less (almost no effect)) | Q: false cleavers, herbicidal effect grade [4]: 2 (Herbicidal rate of 20% or more and less than 40%) | herbicidal effect on Chinese sprangletop (D) [5]: 3 (Herbicidal rate of 40% or more and less than 70%) | I: wild oat, herbicidal effect grade [6]: 4 (Herbicidal rate of 70% or more and less than 90%) | I: wild oat, herbicidal effect grade [7]: 2 (Herbicidal rate of 20% or more and less than 40%) | herbicidal effect on rice flat sedge (E) [8]: 5 (Herbicidal rate of 90% or more (almost completely withered)) | F: southern crabgrass, herbicidal effect grade [9]: 0 (Herbicidal rate of 5% or less (almost no effect)) | N: redroot pigweed, herbicidal effect grade [10]: 4 (Herbicidal rate of 70% or more and less than 90%) | L: windgrass, herbicidal effect grade [11]: 3 (Herbicidal rate of 40% or more and less than 70%) | G: green foxtail, herbicidal effect grade [12]: 0 (Herbicidal rate of 5% or less (almost no effect)) | R: persian speedwell, herbicidal effect grade [13]: 4 (Herbicidal rate of 70% or more and less than 90%) | P: chickweed, herbicidal effect grade [14]: 5 (Herbicidal rate of 90% or more (almost completely withered)) | G: green foxtail, herbicidal effect grade [15]: 4 (Herbicidal rate of 70% or more and less than 90%) | N: redroot pigweed, herbicidal effect grade [16]: 0 (Herbicidal rate of 5% or less (almost no effect)) | L: windgrass, herbicidal effect grade [17]: 0 (Herbicidal rate of 5% or less (almost no effect)) | J: blackgrass, herbicidal effect grade [18]: 3 (Herbicidal rate of 40% or more and less than 70%) | K: Italian ryegrass, herbicidal effect grade [19]: 0 (Herbicidal rate of 5% or less (almost no effect)) | O: lambsquarters, herbicidal effect grade [20]: 4 (Herbicidal rate of 70% or more and less than 90%) | H: barnyard grass, herbicidal effect grade [21]: 3 (Herbicidal rate of 40% or more and less than 70%) | F: southern crabgrass, herbicidal effect grade [22]: 0 (Herbicidal rate of 5% or less (almost no effect)) | P: chickweed, herbicidal effect grade [23]: 3 (Herbicidal rate of 40% or more and less than 70%) | K: Italian ryegrass, herbicidal effect grade [24]: 3 (Herbicidal rate of 40% or more and less than 70%) | O: lambsquarters, herbicidal effect grade [25]: 2 (Herbicidal rate of 20% or more and less than 40%) | R: persian speedwell, herbicidal effect grade [26]: 5 (Herbicidal rate of 90% or more (almost completely withered)) | M: velvetleaf, herbicidal effect grade [27]: 5 (Herbicidal rate of 90% or more (almost completely withered)) | Q: false cleavers, herbicidal effect grade [28]: 4 (Herbicidal rate of 70% or more and less than 90%)

Cc1nn(C)c(=O)c(-c2c(-c3ccccc3C(F)(F)F)sc3ccccc23)c1O [1-007]
herbicidal effect rating, M: velvetleaf [1]: 0 (Herbicidal rate of 5% or less (almost no effect)) | herbicidal effect on H (barnyard grass), rating 0-5 [2]: 5 (Herbicidal rate of 90% or more (almost completely withered)) | herbicidal effect grade, H: barnyard grass [3]: 3 (Herbicidal rate of 40% or more and less than 70%) | herbicidal effect rating, Q: false cleavers [4]: 0 (Herbicidal rate of 5% or less (almost no effect)) | herbicidal effect rating, J: blackgrass [29]: 0 (Herbicidal rate of 5% or less (almost no effect)) | herbicidal effect on D (Chinese sprangletop), rating 0-5 [5]: 5 (Herbicidal rate of 90% or more (almost completely withered)) | herbicidal effect grade, I: wild oat [6]: 3 (Herbicidal rate of 40% or more and less than 70%) | herbicidal effect rating, I: wild oat [7]: 3 (Herbicidal rate of 40% or more and less than 70%) | herbicidal effect on E (rice flat sedge), rating 0-5 [8]: 4 (Herbicidal rate of 70% or more and less than 90%) | herbicidal effect grade, F: southern crabgrass [9]: 3 (Herbicidal rate of 40% or more and less than 70%) | herbicidal effect grade, N: redroot pigweed [10]: 5 (Herbicidal rate of 90% or more (almost completely withered)) | herbicidal effect grade, L: windgrass [11]: 5 (Herbicidal rate of 90% or more (almost completely withered)) | herbicidal effect grade, G: green foxtail [12]: 5 (Herbicidal rate of 90% or more (almost completely withered)) | herbicidal effect rating, R: persian speedwell [13]: 0 (Herbicidal rate of 5% or less (almost no effect)) | herbicidal effect grade, P: chickweed [14]: 5 (Herbicidal rate of 90% or more (almost completely withered)) | herbicidal effect rating, G: green foxtail [15]: 0 (Herbicidal rate of 5% or less (almost no effect)) | herbicidal effect rating, N: redroot pigweed [16]: 0 (Herbicidal rate of 5% or less (almost no effect)) | herbicidal effect grade, J: blackgrass [18]: 0 (Herbicidal rate of 5% or less (almost no effect)) | herbicidal effect rating, K: Italian ryegrass [19]: 0 (Herbicidal rate of 5% or less (almost no effect)) | herbicidal effect grade, O: lambsquarters [20]: 5 (Herbicidal rate of 90% or more (almost completely withered)) | herbicidal effect rating, H: barnyard grass [21]: 0 (Herbicidal rate of 5% or less (almost no effect)) | herbicidal effect rating, F: southern crabgrass [22]: 0 (Herbicidal rate of 5% or less (almost no effect)) | herbicidal effect rating, P: chickweed [23]: 3 (Herbicidal rate of 40% or more and less than 70%) | herbicidal effect grade, K: Italian ryegrass [24]: 3 (Herbicidal rate of 40% or more and less than 70%) | herbicidal effect rating, O: lambsquarters [25]: 0 (Herbicidal rate of 5% or less (almost no effect)) | herbicidal effect grade, R: persian speedwell [26]: 5 (Herbicidal rate of 90% or more (almost completely withered)) | herbicidal effect grade, M: velvetleaf [27]: 5 (Herbicidal rate of 90% or more (almost completely withered)) | herbicidal effect grade, Q: false cleavers [28]: 5 (Herbicidal rate of 90% or more (almost completely withered))
